Assay results as given in paper PMC6344423, “Opposing Actions of Adrenocorticotropic Hormone and Glucocorticoids on UCP1-Mediated Respiration in Brown Adipocytes” (Frontiers in Physiology, 2019).
Ends that are not written are not given here.

Key:
primary brown adipocytes = assay: Microplate-based respirometry (XF96), UCP1-mediated uncoupled respiration; assay type: cell-based, mouse; settings: for Stimulated respiration (fold increase of basal leak), ACTH heptapeptide fragments: fragments 1 μM, n = 4, Figures 4A,B,D,E; for Stimulated respiration (UCP1-dependent uncoupled respiration) as fold increase of basal leak respiration, GsPCR ligand screen: primary brown adipocytes (129S6 mice), acute addition after oligomycin 5 μM, medium with 1–2% fatty acid free BSA, 37°C, n = 5, Figures 1B,C
Procedure: Oxygen consumption of primary brown adipocytes was measured at 37°C using microplate-based respirometry (XF96 extracellular flux analyzer, Seahorse Bioscience) as described previously ([Li et al., 2014b]) following the subsequent protocol at day 7 of differentiation. Prior to the respiration measurement, primary cells were washed with warmed, unbuffered assay medium (DMEM basal medium supplemented with 25 mM glucose, 31 mM NaCl, 2 mM GlutaMax and 15 mg/l phenol red, pH 7.4) (basal assay medium). Subsequent to the medium replacement with basal assay medium containing 1–2% essentially fatty acid free bovine serum albumin (BSA), cells were incubated at 37°C in a CO2-free incubator for 1 h. Assay reagents were loaded into the drug injections ports of the sensor cartridges at 10X in basal assay medium (no BSA). After assessment of basal oxygen consumption in untreated cells oligomycin (5 μM) was injected to inhibit coupled respiration and to determine basal leak respiration. Next, effector was added to investigate UCP1-dependant uncoupled respiration. By the addition of FCCP (1 μM) maximal respiratory capacity was determined. Lastly, non-mitochondrial oxygen consumption was assessed by blocking mitochondrial respiration with antimycin A (5 μM). For some experiments, cells were pretreated for 1 h with 50 μM H89 (PKA inhibitor), 1–100 μM propranolol (β-adrenergic receptor antagonist), 40 μM Atglistatin (ATGL inhibitor) and 40 μM Hi76-0079 (HSL inhibitor) 1 h prior to the measurement. Oxygen consumption rates were automatically calculated by the Seahorse XF-96 software. Each experiment was repeated at least three times with similar results and five to eight replicate wells for every condition in each independent experiment. Results are predominately expressed as stimulated respiration which is calculated as fold increase of basal leak.
In our first screen, we tested whether these GsPCR ligands can activate oxygen consumption acutely in brown adipocytes. UCP1-mediated uncoupled respiration was quantified in cultured adherent intact primary brown adipocytes, according to a protocol established in our lab ([Li et al., 2014b]). After recording basal respiration and the fraction of coupled and uncoupled respiration, UCP1-dependent respiration was measured. Finally, maximal respiratory capacity and non-mitochondrial oxygen consumption were assessed by adding the uncoupling agent carbonyl cyanide 4-(trifluoromethoxy) phenylhydrazone (FCCP) and antimycin A was added to block the electron transport chain, respectively. All respiration assays were performed in the presence of BSA to buffer free fatty acid (FFA) levels in the respiration medium.

[1] = tested on: Ucp1 gene expression in primary brown adipocytes of Ucp1^ki/ki mice; assay: Luciferase assay, FLUC activity as surrogate for Ucp1 expression; assay type: cell-based, mouse; settings: overnight stimulation, normalized to total protein content, n = 3, Figure 1D
Procedure: After overnight stimulation of primary brown adipocytes of Ucp1^ki/ki mice luciferase activity was assayed using a commercial kit system (Luciferase Assay System Freezer Pack E4030, Promega GmbH). Primary cells were lysed in 1x reporter lysis buffer by shaking for 20 min at room temperature. 10 μl lysate was mixed with 50 μl luciferase assay substrate solution, and the mixture was measured by FB12 in a luminometer (Single Tube Luminometer, Titertek-Berthold GmbH). Bioluminescence readouts were normalized to total protein content.
We then measured FLUC activity in primary brown adipocytes from Ucp1^ki/ki reporter gene mice to determine the effect of the GsPCR ligands on Ucp1 gene expression in response to overnight stimulation. As the expression of Fluc in these cells is driven by Ucp1promoter, FLUC activity served as a surrogate for Ucp1 expression.

[2] = tested on: Ucp1 mRNA in primary brown adipocytes; assay: Ucp1 gene expression analysis (qRT-PCR), brown adipocytes; assay type: cell-based, mouse; settings: for Ucp1 mRNA expression, ACTH heptapeptide fragments: normalized to Gtf2b, n = 4, Figures 4C,F
Procedure: (§1) Total RNA was isolated using Trisure (Bioline) and purified with SV total RNA Isolation System (Promega). Reverse transcriptase reactions were performed using SensiFAST cDNA Synthesis Kit (Bioline). Quantitative real-time PCR (qRT-PCR) was performed with SYBR green fluorescent dye in 384-well format using LightCycler 480 (Roche). General Transcription Factor IIB (Gtf2b) served as an internal control. To be able to calculate relative gene expression levels of samples, standard reactions containing serial diluted pooled cDNA of all samples (Pure, 1:2, 1:4, 1:8, 1:16, 1:32 and 1:64) as a template were used to establish a standard curve. The RNA abundance of Ucp1 gene was normalized to the housekeeping gene Gtf2b. The following primers were used: […]

release of FFAs = settings: lipolysis as criterion of potency; ref Draper et al., 1973; cited from earlier work
Source text: The heptapeptide sequence, Met-Glu-His-Phe-Arg-Trp-Gly, is common to all the adrenocorticotropic (ACTH), melanotropic (MSH), and lipotropic (LPH) hormones.

[3] = tested on: cytosolic cAMP in primary brown adipocytes; assay: Quantification of cellular cAMP (cAMP-Glo Assay); assay type: cell-based, mouse
Procedure: Changes in cytosolic cAMP concentrations were determined in primary brown adipocytes in response to ACTH- or isoproterenol stimulation using cAMP-Glo Assay (Promega) following the manufacturer’s instructions.

[4] = tested on: melanocortin 2 receptor (Mc2r) expression; assay: Mc2r gene expression (qRT-PCR) in primary brown adipocytes; assay type: cell-based, mouse; settings: 5 μM Dexa, 0–4 h, n = 4
Procedure: as §1

[5] = tested on: β3-adrenergic receptor (Adrb3) expression; assay: Adrb3 gene expression (qRT-PCR) in primary brown adipocytes; assay type: cell-based, mouse; settings: 5 μM Dexa, 0–4 h, n = 4
Procedure: as §1

[6] = tested on: Ucp1 mRNA and UCP1 protein; design: method as in Soumano et al., 2000; van den Beukel et al., 2014; settings: ref Soumano et al., 2000; van den Beukel et al., 2014; cited from earlier work
Source text: To address the physiological role of ACTH in brown fat thermogenesis we analyzed the expression of its receptor in BAT of mice in response to cold exposure. […] Basically, ACTH triggers the release of glucocorticoids from the cortex of the adrenal gland. Circulating glucocorticoids exert negative feedback control on the […] ...

[7] = 5 μM Dexa pretreatment, n = 4, Figure 5G

CC(C)NCC(O)COc1cccc2ccccc12 (stereo not drawn) [propranolol]
Effect of propranolol pre-treatment on ACTH stimulated respiration (primary brown adipocytes; 1 h pretreatment, 1–100 μM propranolol, ACTH 1 μM, n = 4, Figure 2B): did not attenuate ACTH stimulated respiration | Effect of propranolol pre-treatment on ISO stimulated respiration (primary brown adipocytes; 1 h pretreatment, 1–100 μM propranolol, ISO 0.5 μM, n = 4, Figure 2B): blocking the effect of ISO in a dose-dependent manner

O=S(=O)(NCCNC/C=C/c1ccc(Br)cc1)c1cccc2cnccc12 [H89]
Effect of PKA inhibitor on ACTH-stimulated respiration (primary brown adipocytes; H89 50 μM, ACTH 1 μM, n = 4, Figure 2E): completely blocked the effect on respiration of ACTH

thyroid hormone
FLUC (luciferase) activity as surrogate for Ucp1 expression [1]: no effect on FLUC

MRHFRWG [synACTH(4-10), mutant ACTH fragment, synthetic analog of ACTH(4-10) with amino acid exchange from Glu to Arg]
Ucp1 mRNA expression, ACTH heptapeptide fragments [2]: comparable to that of the natural heptapeptide | Activity on the release of FFAs compared to the natural ACTH core sequence (release of FFAs): fourfold increased activity on the release of FFAs | Stimulated respiration (fold increase of basal leak), ACTH heptapeptide fragments (primary brown adipocytes): mildly increased respiration

adrenomedullin: ligand for calcitonin receptor-like receptor (CALCRL)
FLUC (luciferase) activity as surrogate for Ucp1 expression [1]: only had minor effects

CCCCC[C@H](O)/C=C/[C@H]1[C@H](O)CC(=O)[C@@H]1C/C=C\CCCC(=O)O [PGE2, Prostaglandin E2]
FLUC (luciferase) activity as surrogate for Ucp1 expression [1]: moderate rise in FLUC activity

PTH: parathyroid hormone, ligand of PTHR
FLUC (luciferase) activity as surrogate for Ucp1 expression [1]: highest FLUC activities | Stimulated respiration (UCP1-dependent uncoupled respiration) as fold increase of basal leak respiration, GsPCR ligand screen (primary brown adipocytes): modest compared to ISO

CC(C)NCC(O)c1ccc(O)c(O)c1 (stereo not drawn) [ISO, isoproterenol]
EC50 ([3]; Mus musculus, Adipocyte, 0.5 h, stimulation for 30 min, n = 3, non-linear regression, Figure 2D): 9.41 nM

Met-Glu-His-Phe-Arg-Trp-Gly [ACTH(4-10)]
Ucp1 mRNA expression, ACTH heptapeptide fragments [2]: significantly increased Ucp1 mRNA expression | Stimulated respiration (fold increase of basal leak), ACTH heptapeptide fragments (primary brown adipocytes): no impact on respiration

secretin: peptide ligand of the secretin receptor
FLUC (luciferase) activity as surrogate for Ucp1 expression [1]: highest FLUC activities | Stimulated respiration (UCP1-dependent uncoupled respiration) as fold increase of basal leak respiration, GsPCR ligand screen (primary brown adipocytes): most prominent induction of UCP1-dependant uncoupled respiration

α-MSH: α-melanocyte-stimulating hormone, melanocortin
FLUC (luciferase) activity as surrogate for Ucp1 expression [1]: moderate rise in FLUC activity | Stimulated respiration (UCP1-dependent uncoupled respiration) as fold increase of basal leak respiration, GsPCR ligand screen (primary brown adipocytes): weakest effects on cellular respiration

CCNC(=O)[C@H]1O[C@@H](n2cnc3c(N)nc(NCCc4ccc(CCC(=O)O)cc4)nc32)[C@H](O)[C@@H]1O [CGS21680]
FLUC (luciferase) activity as surrogate for Ucp1 expression [1]: no effect on FLUC

C[C@@H]1C[C@H]2[C@@H]3CCC4=CC(=O)C=C[C@]4(C)[C@@]3(F)[C@@H](O)C[C@]2(C)[C@@]1(O)C(=O)CO [Dexa, dexamethasone]
Effect of Dexa on Ucp1 expression ([2]; 4-h treatment, 5 μM Dexa, n = 4): no significant effect on Ucp1 expression | Effect of Dexa on expression of the melanocortin 2 receptor [4]: not a consequence of reduced or increased expression | Effect of Dexa on expression of the β3-adrenergic receptor [5]: not a consequence of reduced or increased expression | Effect of Dexa on ACTH induced rise in cellular cAMP [3, 7]: no such effect was observed for ACTH | Effect of Dexa on ISO induced rise in cellular cAMP [3, 7]: attenuated the ISO induced rise in cellular cAMP levels | Effect of Dexa pretreatment on ACTH-induced respiration (primary brown adipocytes; 5 μM Dexa, 0–4 h, n = 4, Figure 5C): unaffected | Effect of Dexa pretreatment on ISO-stimulated respiration (primary brown adipocytes; 5 μM Dexa, 0–4 h, with increasing exposure time, n = 4, Figure 5C): attenuated ISO-stimulated respiration | Effect of Dexa on respiration, one-hour pre-treatment or acute stimulation (primary brown adipocytes; 5 μM Dexa, n = 4, Figure 5B): had no effect on respiration | Effect of DEXA treatment on thermogenic response, 1 h (primary brown adipocytes; DEXA treatment for 1 h): had no effect | Effect of DEXA treatment on thermogenic response to ISO, 4 h (primary brown adipocytes; extended DEXA treatment for 4 h, compared with 2 h): more pronounced | Effect of DEXA treatment on thermogenic response to ISO, 2 h (primary brown adipocytes; two hours of DEXA treatment): significant downregulation of the thermogenic response to ISO

C[C@]12C[C@H](O)[C@H]3[C@@H](CCC4=CC(=O)CC[C@@]43C)[C@@H]1CC[C@@H]2C(=O)CO [corticosterone]
Effect on Ucp1 mRNA and UCP1 protein in response to adrenergic stimulation and ACTH treatment [6]: reduces Ucp1 mRNA and UCP1 protein

PACAP: pituitary adenylate cyclase-activating peptide
FLUC (luciferase) activity as surrogate for Ucp1 expression [1]: highest FLUC activities | Stimulated respiration (UCP1-dependent uncoupled respiration) as fold increase of basal leak respiration, GsPCR ligand screen (primary brown adipocytes): weakest effects on cellular respiration
